For assay [1] the following is noted: has been reported; cited from earlier work.
Assay [2] in a line: taste of the mogroside itself and blocking of bitter tastes. It counts as in vivo. An excerpt:
In many (but not necessarily all) uses of the present invention, it is preferred to use levels of mogroside below the threshold at which the mogroside imparts a sweetening effect. […] Mogroside V is sweet. Mogroside III has been reported to be tasteless. […] If desired, it should be possible to use Mogroside III in higher concentration than Mogroside V to block bitter or other unwanted tastes, without imparting any sweetening effect.

Assay [3] in a line: blind tasting of poached chicken liver and chicken gizzard puree. It counts as in vivo. As for the experimental part:
In initial experiments, Mogroside V was tested at varying levels from 100-500 ppm. […] Mogroside V was added to a chicken liver and chicken gizzard puree, and the puree was poached to an internal temperature of 74° C. A control puree with no mogroside was identically cooked. Six individuals tasted the samples blind and could easily differentiate them.

Assay [4] is described as follows: sodium reduction blends tested on navy beans. Format: in vivo. As for the experimental part:
(§1) These sodium reduction blends were tested with red beans, navy beans, crackers, and potato chips. Results are shown in Table III (in which “M” is an abbreviation for Mogroside V.)

A short description of assay [5]: sodium reduction blends tested on shredded wheat crackers. Format: in vivo. The protocol: as §1
A short description of assay [6]: sodium reduction blends tested on whole wheat crackers. It counts as in vivo. The protocol:
as §1

Assay [7] in a line: sodium reduction blends tested on red beans. It counts as in vivo. As for the experimental part:
as §1

Assay [8] is described as follows: sodium reduction blends tested on potato chips. It counts as in vivo. The protocol: as §1

Here are results for three compounds from patent publication US20200214324A1, “Masking Bitter Flavors” (Board of Supervisors of Louisiana State University and …, priority 2009, published 2020).

Each structure is given as a SMILES string. Like-named read-outs stand apart in the source and are kept apart here.

Consider `C[C@H](CC[C@@H](O[C@@H]1O[C@H](CO[C@@H]2O[C@H](CO)[C@@H](O)[C@H](O)[C@H]2O)[C@@H](O)[C@H](O)[C@H]1O)C(C)(C)O)[C@H]1CC[C@@]2(C)[C@@H]3CC=C4[C@@H](CC[C@H](O[C@@H]5O[C@H](CO)[C@@H](O)[C@H](O)[C@H]5O)C4(C)C)[C@]3(C)[C@H](O)C[C@]12C` [Mogroside III], for which the “taste of the compound itself” value in assay [1] is given as “tasteless”. The “blocking of bitter tastes” value in assay [2] (preliminary tests) is reported as “effectively blocks bitter tastes”.

As to `C[C@H](CC[C@@H](O[C@@H]1O[C@H](CO[C@@H]2O[C@H](CO)[C@@H](O)[C@H](O)[C@H]2O)[C@@H](O)[C@H](O)[C@H]1O[C@@H]1O[C@H](CO)[C@@H](O)[C@H](O)[C@H]1O)C(C)(C)O)[C@H]1CC[C@@]2(C)[C@@H]3CC=C4[C@@H](CC[C@H](O[C@@H]5O[C@H](CO[C@@H]6O[C@H](CO)[C@@H](O)[C@H](O)[C@H]6O)[C@@H](O)[C@H](O)[C@H]5O)C4(C)C)[C@]3(C)[C@H](O)C[C@]12C` [Mogroside V], the “taste of the compound itself” value in assay [2] (in vivo) is recorded as “sweet”. For the same compound, the “taste description by six blind tasters” value in assay [3] (150-250 ppm, puree poached to 74° C., control livery, organy, bloody) was “slightly sweet, “bologna-like,” and “bland.””. For the same compound, the “effect above the preferred range” value in assay [3] (above about 250 ppm) is “a very sweet taste developed”. Moreover, the “effect below the preferred range” value in assay [3] (below about 150 ppm) is “the effect was minimal”. Besides, the “preferred levels of mogroside” value in assay [3] (initial experiments, tested 100-500 ppm) was 150-250 ppm. Moreover, the preference of testers entry in assay [3] (samples with mogroside vs control puree, six individuals) is listed as “All testers preferred the samples with mogroside”. The “level preferred by the majority of testers” value in assay [3] (tested 100-500 ppm) worked out at 200 ppm.

Take `[Cl-].[Na+]` [NaCl]: the “Overall Taste” value in assay [4] is 6.17; in assay [5], 6.04; in assay [6] it was 7.04; in assay [7], 6.79; in assay [8], 6.97. Moreover, the Saltiness amounted to 6.13 in assay [4]; 6.04 in assay [5]; 6.96 in assay [6]; 6.63 in assay [7]; 6.92 in assay [8].
